This is an account of results in patent US12319672B2, “Alpha-D-galactopyranoside derivatives” (Idorsia Pharmaceuticals Ltd, priority 2019, dated 2025).

One assay addresses human Gal-1 (hGal-1). Put plainly: Competitive binding assay: binding of biotinylated hGal-1 to microplate-adsorbed asialofetuin (ASF). Conditions: Activities on hGal-1; mean values of several measurements. The procedure, abridged: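 Spectrophotometric readout (streptavidin-peroxidase, ABTS) of biotinylated galectin retained on ASF-coated wells. Biotinylated hGal-1 or hGal-3, 300-1000 ng/mL, co-incubated with test compound 3 h at 4° C, then washed. Mean IC50 from repeat runs.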

Another assay addresses human Gal-3 (hGal-3) (Homo sapiens (Human), UniProt P17931). Put plainly: Competitive binding assay: binding of biotinylated hGal-3 to microplate-adsorbed asialofetuin (ASF). Conditions: Activity on hGal-3; mean values of several measurements. The method in brief: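 For hGal-1, a variant with all six cysteines replaced by serines is preferred. Either galectin, biotinylated at 300-1000 ng/mL, competes with compound for microplate-bound ASF over 3 h at 4° C; peroxidase/ABTS detection gives IC50, averaged.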

Each structure is given as a SMILES string.

Chain of human Gal-1 (hGal-1) (P09382 2-135 limits assumed): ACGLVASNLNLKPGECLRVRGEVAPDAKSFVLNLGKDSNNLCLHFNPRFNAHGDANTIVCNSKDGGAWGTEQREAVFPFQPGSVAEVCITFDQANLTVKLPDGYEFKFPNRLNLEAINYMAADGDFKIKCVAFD
Chain of human Gal-3 (hGal-3) (P17931 whole entry): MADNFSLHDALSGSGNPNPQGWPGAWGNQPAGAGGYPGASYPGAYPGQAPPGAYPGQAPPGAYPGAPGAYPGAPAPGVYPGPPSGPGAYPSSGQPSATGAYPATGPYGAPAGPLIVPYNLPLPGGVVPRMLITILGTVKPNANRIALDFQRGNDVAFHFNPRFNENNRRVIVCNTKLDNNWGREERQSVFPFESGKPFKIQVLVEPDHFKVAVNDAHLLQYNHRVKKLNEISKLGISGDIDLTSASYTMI

What is called IC50 is the concentration that inhibits the measured activity by half. The low end stands for greater potency, the high end for weaker potency. With `CO[C@@H]1[C@@H](n2cc(-c3cc(F)c(C#N)c(F)c3)nn2)[C@@H](O)[C@@H](CO)O[C@@H]1CC1CC(C2CCN(C(=O)OC(C)(C)C)CC2)=NO1` (stereo partly drawn) [Ex 1.223], the results for the IC50 on human Gal-1 (hGal-1) and on human Gal-3 (hGal-3) were 16700 nM and 380 nM, respectively.
In the case of `CO[C@@H]1[C@@H](n2cc(-c3ccc(C)c(F)c3F)nn2)[C@@H](O)[C@@H](CO)O[C@@H]1Cc1cc(C2CCC2)on1` [Ex 1.224], the IC50 on human Gal-1 (hGal-1) amounted to 14100 nM; on human Gal-3 (hGal-3), 70 nM.
On to `CO[C@@H]1[C@@H](n2cc(-c3cc(F)c(F)c(F)c3)nn2)[C@@H](O)[C@@H](CO)O[C@@H]1Cc1cc(C2(O)CCC2)on1` [Ex 1.225], for which the IC50 is 4850 nM at human Gal-1 (hGal-1) and 530 nM at human Gal-3 (hGal-3).
Consider `CO[C@@H]1[C@@H](n2cc(-c3ccc(F)c(F)c3F)nn2)[C@@H](O)[C@@H](CO)O[C@@H]1Cc1cc(C2CCC2)on1` [Ex 1.226], for which the IC50 stood at 1190 nM on human Gal-1 (hGal-1) and 130 nM on human Gal-3 (hGal-3).
On to `CO[C@@H]1[C@@H](n2cc(-c3ccc(Cl)c(F)c3F)nn2)[C@@H](O)[C@@H](CO)O[C@@H]1Cc1cc(C2CCC2)on1` [Ex 1.227], for which the results for the IC50 on human Gal-1 (hGal-1) and at human Gal-3 (hGal-3) were 16600 nM and 77 nM, respectively.
With `CO[C@@H]1[C@@H](n2cc(-c3cccc(F)c3)nn2)[C@@H](O)[C@@H](CO)O[C@@H]1Cc1cc(C2CCN(C(=O)OC(C)(C)C)CC2)on1` [Ex 1.228], the IC50 at human Gal-1 (hGal-1) was 790 nM; on human Gal-3 (hGal-3), 200 nM.
For `CO[C@@H]1[C@@H](n2cc(-c3ccc(C)c(F)c3F)nn2)[C@@H](O)[C@@H](CO)O[C@@H]1Cc1cc(-c2ccc(F)c(F)c2F)on1` [Ex 1.229], the values for the IC50 at human Gal-1 (hGal-1) and on human Gal-3 (hGal-3) were > 100000 nM and 530 nM, respectively.
The matching figures for `CO[C@@H]1[C@@H](n2cc(-c3ccc(Cl)c(F)c3F)nn2)[C@@H](O)[C@@H](CO)O[C@@H]1Cc1cc(-c2ccc(F)c(F)c2F)on1` [Ex 1.231]: > 100000 nM and 910 nM.
On to `CO[C@@H]1[C@@H](n2cc(-c3ccc(F)c(F)c3F)nn2)[C@@H](O)[C@@H](CO)O[C@@H]1Cc1cc(C(C)(C)O)on1` [Ex 1.232], for which the IC50 turned out to be 970 nM at human Gal-1 (hGal-1) and 100 nM on human Gal-3 (hGal-3).
As to `CO[C@@H]1[C@@H](n2cc(-c3ccc(F)c(F)c3F)nn2)[C@@H](O)[C@@H](CO)O[C@@H]1Cc1cc(C2(O)CCCCC2)on1` [Ex 1.233], the half-inhibitory concentration (IC50) at human Gal-1 (hGal-1) is 1330 nM; on human Gal-3 (hGal-3) it was 88 nM.
The matching figures for `CO[C@@H]1[C@@H](n2cc(-c3ccc(F)c(F)c3F)nn2)[C@@H](O)[C@@H](CO)O[C@@H]1Cc1cc(C2(O)CCCC2)on1` [Ex 1.234]: 1270 nM and 57 nM.
The matching figures for `CO[C@@H]1[C@@H](n2cc(-c3ccc(F)c(F)c3F)nn2)[C@@H](O)[C@@H](CO)O[C@@H]1Cc1cc(C2CCCC2)on1` [Ex 1.235]: 1330 nM and 100 nM.
The matching figures for `CO[C@@H]1[C@@H](n2cc(-c3ccc(F)c(F)c3F)nn2)[C@@H](O)[C@@H](CO)O[C@@H]1Cc1cc(C2(O)CCC2)on1` [Ex 1.236]: 960 nM and 57 nM.
For `CO[C@@H]1[C@@H](n2cc(-c3ccc(C)c(F)c3F)nn2)[C@@H](O)[C@@H](CO)O[C@@H]1Cc1cc(C(C)(C)O)on1` [Ex 1.237], the IC50 at human Gal-1 (hGal-1) was 4220 nM; at human Gal-3 (hGal-3), 75 nM.
The matching figures for `CO[C@@H]1[C@@H](n2cc(-c3ccc(C)c(F)c3F)nn2)[C@@H](O)[C@@H](CO)O[C@@H]1Cc1cc(C2(O)CCCCC2)on1` [Ex 1.238]: 3740 nM and 45 nM.
Turning to `CO[C@@H]1[C@@H](n2cc(-c3ccc(C)c(F)c3F)nn2)[C@@H](O)[C@@H](CO)O[C@@H]1Cc1cc(C2(O)CCCC2)on1` [Ex 1.239], the IC50 on human Gal-1 (hGal-1) was 6440 nM; on human Gal-3 (hGal-3) it was 72 nM.
Turning to `CO[C@@H]1[C@@H](n2cc(-c3ccc(C)c(F)c3F)nn2)[C@@H](O)[C@@H](CO)O[C@@H]1Cc1cc(C2CCCC2)on1` [Ex 1.240], the IC50 at human Gal-1 (hGal-1) was found to be 13900 nM; at human Gal-3 (hGal-3), 100 nM.
With `CO[C@@H]1[C@@H](n2cc(-c3ccc(C)c(F)c3F)nn2)[C@@H](O)[C@@H](CO)O[C@@H]1Cc1cc(C2(O)CCC2)on1` [Ex 1.241], the IC50 at human Gal-1 (hGal-1) is 2580 nM; on human Gal-3 (hGal-3), 79 nM.
